Entries after “also recorded” stand apart in the source; their conditions may differ.
Key:
PI3K (p85) = test: Co-immunoprecipitation of the regulatory subunit of PI3K (p85) with αPDGFR mutants in F cells; type: cell-based, mouse; conditions: 50 ng/ml PDGF-BB, 5 minutes
Description: (§1) The ability of the αPDGFR mutants to undergo ligand dependent tyrosine phosphorylation and to associate with signaling enzymes was then tested. F cells expressing various αPDGFR mutants were grown to subconfluence and serum starved overnight. Cells were either left resting (−) or stimulated with 50 ng/ml PDGF-BB (+) for 5 minutes, and lysed. The αPDGFR was immunoprecipitated with αPDGFR antibody, as described above, and the resulting immunoprecipitates were resolved by 7.5% SDS-PAGE and transferred onto Immobilon. The segment of the blot containing the αPDGFR was first blotted with anti-phosphotyrosine antibodies, then stripped and reprobed with an anti-αPDGFR antibody. Portions of the membrane that contained the proteins of the appropriate molecular mass were immunoblotted for PLCγ, the regulatory subunit of PI3K (p85), or SHP-2. Crude rabbit anti-p85 antibody is from Dr. A. Toker (Beth Israel Hospital/Harvard Medical School, Boston, Mass.). The monoclonal antibodies against PLCγ and SHP-2 were purchased from Upstate Biotechnology Inc.

rabbit eyes = conditions: previously found (Rosenkranz et al. 2000); cited from earlier work
SHP-2 = test: Co-immunoprecipitation of SHP-2 with αPDGFR mutants in F cells; type: cell-based, mouse; conditions: 50 ng/ml PDGF-BB, 5 minutes
Description: as §1

Src family kinases = conditions: cited from earlier work
PLCγ = test: Co-immunoprecipitation of PLCγ with αPDGFR mutants in F cells; type: cell-based, mouse; conditions: 50 ng/ml PDGF-BB, 5 minutes
Description: as §1

F cells = test: Collagen gel contraction assay of F cells expressing αPDGFR mutants; type: cell-based, mouse; conditions: PDGF-BB (50 ng/ml), 48 hours
Description: The contraction assay was based on a previously described reference, Skuta, G. et al. (1999) J. Biol. Chem. 274:30163, with the following modifications. Fα cells were suspended in 1.5 mg/ml of neutralized collagen I (Cohesion vitrogen 100, Palo Alto, Calif.) at a density of 10^6 cells/ml, and were transferred into the 24-well plate (Falcon, Franklyn Lakes, N.J.) that had been preincubated with phosphate-buffer saline (PBS) with 5 mg/ml of bovine serum albumin (BSA) overnight. The gel was solidified by incubating at 37° C. for 90 minutes, and then the well was flooded with DMEM+5 mg/ml of BSA supplemented with an amount of vitreous such that the final concentration of vitreous in the culture medium was 1, 5 or 20%. The gels were incubated at 37° C. with 5% CO2. The initial gel diameter was 15 mm. The media was replaced every 24 hours and the gel diameter was measured after 48 hours. The extent of contraction was calculated by subtracting the diameter of the well at 48 hours from the initial diameter (15 mm). Each experimental condition was assayed in triplicate, and at least three independent experiments were performed. Unpaired t-test was performed to detect statistic difference in contraction assay.
To determine the signaling pathways that drive contraction, cells expressing the αPDGFR mutants were subjected to the collagen gel contraction assay described above. Accordingly, F cells expressing the indicated αPDGFRs were subjected to the collagen gel assay in the presence of buffer, PDGF-BB (50 ng/ml), TGFβ1 (1 ng/ml), or FBS (10%). The data presented are the mean±standard deviation measured at the 48 hours time point. Each experimental condition was assayed in triplicate, and at least 3 independent experiments were performed.

## F72/74: αPDGFR mutant, Tyr to Phe substitution at 572 and 574
PI3K (p85)
  recruitment of PI3K / p85 (Properties): bind all of these signaling enzymes
Rabbit eyes
  potential to induce PVR: induced PVR with slightly accelerated kinetics
SHP-2
  recruitment of SHP-2 (Properties): bind all of these signaling enzymes
Src family kinases
  recruitment or activation of Src family kinases (Properties): selectively fails to associate with Src family kinases; also recorded: Fails to recruit or activate
PLCγ
  recruitment or activation of PLCγ (Properties): bind all of these signaling enzymes
F cells
  PDGF-dependent contraction: no effect on contraction

From patent US6667173B2, “Nucleic acids encoding platelet derived growth factor-alpha receptors” (The Schepens Eye Research Institute, priority 2000, dated 2003)
